The source of these data is patent publication EP2050748A1, “Novel fused pyrimidines” (Bayer Schering Pharma Aktiengesellschaft, priority 2007, dated 2009).

For experiment [1], the system named is phosphorylated Akt protein (Ser473). Kind of experiment: Cellular PI3K / Akt pathway assay (phospho-Akt ELISA). The conditions noted are these: Homo sapiens; MCF7 cells, stimulated with ß-Heregulin (20ng/ml), compound incubated 48h, phospho-Akt1 (Ser473) ELISA. The format is cell-based. On the procedure:
In order to study the cellular activity of the compounds according to the present invention, an Enzyme Linked Immunosorbent Assay (ELISA)-based assay has been used specific phospho-AKT. The assay is based on a Sandwich ELISA kit (PathScan™ Phospho-Akt1 (Ser473); Cell Signaling, USA; #7160).
The ELISA Kit detects endogenous levels of phosphorylated Akt protein. A phospho-Akt (Ser473) antibody (Cell Signaling, USA; #9271) has been coated onto the microwells. After incubation with cell lysates, the coated antibody captures the phosphorylated Akt protein. Following extensive washing, Akt1 monoclonal antibody (Cell Signaling, USA; #2967) is added to detect the captured phospho-Akt1 protein. HRP-linked anti-mouse antibody (HRP: horseradish peroxidase; Cell Signaling, USA; #7076) is then used to recognize the bound detection antibody. HRP substrate (= 3,3',5,5'-tetramethylbenzidine (TMB); Cell Signaling, USA; #7160) is added to develop colour. The magnitude of optical density for this developed color is proportional to the quantity of phosphorylated Akt protein.
MCF7 cells (ATCC HTB-22) are seeded into 96 well fate bottom plates at a density of 10000 cells/well. 24 hours after seeding, the cells are serum starved using low-serum medium (IMEM media including 0,1% charcoal treated FCS (FCS: fetal calf serum)). After 24 hours 1 µl each of the compound dilutions (test compounds were dissolved as 10 mM solutions in dimethylsulfoxide (DMSO) and subsequently diluted) are added into each well of the 96 well plates and incubated for 48h at 37°C in a humidified athmosphere containing 5% CO2. To stimulate Akt phosphorylation, ß-Heregulin (20ng/ml β-HRG) is added in parallel to the compounds. Wells containing unstimulated control cells (no β-Heregulin stimulation) are incubated with or without the diluted compound. Wells containing untreated control cells (no compound) are filled with medium containing 0.5% v:v DMSO and are or are not stimulated with β-Heregulin.
Cells are harvested and lysed with brief sonification in 1x x cell lysis buffer (20mM Tris (pH7.5), 150 mM NaCl, 1 mM ethylene diaminetetraacetate (EDTA), 1 mM ethylene glycolbis(2-aminoethyl)-N,N,N',N'-tetraacetic acid (EGTA), 1vol% Triton X-100, 2.5mM sodium pyrophosphate, 1 mM β-glycerolphosphate, 1 mM Na3VO4, 1 µg/ml leupeptin). The lysate is centrifuged for 10 min. at 4°C and the supernatant is transferred to a new tube. 100 µl of sample diluent (0.1vol% Tween-20, 0.1vol% sodium azide in phosphate buffered saline (PBS)) are added to a microcentrifuge tube and 100 µl of cell lysate are transferred into the tube and vortexed. 100 µl of each diluted cell lysate are added to the appropriate ELISA well, and incubated overnight at 4°C. The plates are washed 4 times with 1 x wash buffer (1 vol% tween-20, 0.33vol% thymol, in PBS). Next 100 µl of detection antibody (Akt1 (2H10) monoclonal detection antibody; Cell Signaling, USA; #2967) are added to each well and incubation continued for 1 h at 37°C. The washing procedure is repeated between each step. 100µl of secondary antibody (anti-mouse IgG HRP-linked antibody; Cell Signaling, USA; #7076) are added to each well and incubated for 30 min. at 37°C. Than, 100µl of TMB substrate (0.05% 3,3',5,5' tetramethylbenzidine, 0.1 % hydrogen peroxide, complex polypeptides in a buffered solution; Cell Signaling, USA; #7160) are added to each well and incubated for 30 min. at 25°C. Finally 100 µl of STOP solution (0.05vol% α and β unsaturated carbonyl compound) are added to each well and the plate are shaked gently. The absorbance is measured at λ=450 nm (Wallac Victor2; Perkin Elmer, USA) within 30 min. after adding the STOP solution. The analysis of the data is performed using a statistical program (Excel; Microsoft, USA). Preferred compounds show an inhibitory activity towards Akt phosphorylation below 10µM.

Experiment [2] has as its system phosphorylated GSK3 (Ser9). Kind of experiment: Cellular pGSK3 assay (phospho-GSK3 ELISA). The conditions noted are these: Homo sapiens, MCF7 cells, compound incubated 48h. The format is cell-based. On the procedure:
In order to study the cellular activity of the compounds according to the present invention, an ELISA-based assay has been established for the phosphorylated protein glycogen synthetase kinase 3 (GSK3). The assay is based on a solid phase sandwich ELISA that detects endogenous levels of phosphorylated GSK3 using a phospho-GSK3 (Ser9) specific antibody (BioSource International, Inc.; Catalog #KHO0461). After incubation with cell lysates, the coated antibody captures the phosphorylated GSK3 protein. Following extensive washing, GSK3 polyclonal antibody is added to detect the captured phospho-GSK3 protein. Secondary antibody (anti-rabbit IgG-HRP) is then used to recognize the bound detection antibody. After the second incubation and washing to remove all the excess anti-rabbit IgG-HRP, a substrate solution is added, which is acted upon by the bound enzyme to produce color. The intensity of this colored product is directly proportional to the concentration of GSK-3β [pS9] present in the original specimen. MCF7 cells (ATCC HTB-22) were seeded into 96 well fate bottom plates at a density of 10000 cells/well. After 24 h 1 µl each of the compound dilutions (test compounds were dissolved as 10 mM solutions in dimethylsulfoxide (DMSO) and subsequently diluted) were added into each well of the 96 well plates and incubated for 48h at 37°C in a humidified athmosphere containing 5% CO2. Cells were harvested and lysed in cell extraction buffer (10 mM Tris, pH 7.4, 100 mM NaCl, 1 mM EDTA, 1 mM EGTA, 1 mM NaF, 20 mM Na4P2O7, 2 mM Na3VO4, 1% Triton X-100, 10vol% glycerol, 0.1vol% SDS, 0.5vol% deoxycholate, 1 mM phenylmethylsulfonylfluorid (PMSF)). The lysate were centrifuged for 10 min. at 4°C and the supernatant were transferred to a new tube. 50 µl of sample diluent (standard diluent buffer, Biosource) were added and 100 µl of cell lysate transferred into the tube and vortexed. 100 µl of each diluted cell lysate were added to the appropriate ELISA well plate and incubated for 3h at room temperature. The plates were washed 4 times with 1x wash buffer (Biosource). 50 µl of detection antibody (GSK3 (Ser9) detection antibody; BioSource) were added to each well and incubated for 30 min. at room temperature. The washing procedure was repeated between each step. 100µl of HRP-linked secondary antibody (anti-mouse IgG HRP-linked antibody) were added to each well and incubated for 30 min. at room temperature. 100µl of TMB substrate (0.05vol% 3,3',5,5' tetramethylbenzidine, 0.1vol% hydrogen peroxide, complex polypeptides in a buffered solution; Biosource) were added to each well and incubated for 30 min. at room temperature. Finally 100 µl of Stop solution (0.05vol% α and β unsaturated carbonyl compound) were added to each well and the plate were shaked gently for a few seconds. The absorbance was measured at λ = 450 nm (Wallac Victor2; Perkin Elmer, USA) within 30 min. after adding the stop solution. The analysis of the data was performed using a statistical program (Excel; Microsoft, USA) and the IC50 of pGSK3 inhibition was determined.

With `N#Cc1cnc2nc(-c3ccc(CN4CCC(c5n[nH]c(-c6ccccn6)n5)CC4)cc3)c(-c3ccccc3)cn12` [Example 8, 6-phenyl-7-(4-{[4-(5-pyridin-2-yl-1,2,4-triazol-3-yl)piperidin-1-yl]methyl}phenyl)imidazo[1,2-a]pyrimidine-3-carbonitrile], the values for the half-inhibitory concentration (IC50) in experiment [1] and in experiment [2] were < 1 µM and 1 to 10 µM, respectively.
As to `Fc1cnc2nc(-c3ccc(CN4CCC(c5n[nH]c(-c6ccccn6)n5)CC4)cc3)c(-c3ccccc3)cn12` [Example 9, 3-fluoro-6-phenyl-7-(4-{[4-(5-pyridin-2-yl-1H-1,2,4-triazol-3-yl)piperidin-1-yl]methyl}phenyl)imidazo[1,2-a]pyrimidine], the values for the IC50 in experiment [1] and in experiment [2] were < 1 µM and 1 to 10 µM, respectively.
The corresponding values for `CCc1cnc2nc(-c3ccc(CN4CCC(c5n[nH]c(-c6ccccn6)n5)CC4)cc3)c(-c3ccccc3)cn12` [Example 22, 3-ethyl-6-phenyl-7-(4-{[4-(5-pyridin-2-yl-1,2,4-triazol-3-yl)piperidin-1-yl]methyl}phenyl)imidazo[1,2-a]pyrimidine] are < 1 µM and 1 to 10 µM.
On to `Clc1cnc2nc(-c3ccc(CN4CCC(c5n[nH]c(-c6ccccn6)n5)CC4)cc3)c(-c3ccccc3)cn12` [Example 12, 3-chloro-6-phenyl-7-(4-{[4-(5-pyridin-2-yl-1,2,4-triazol-3-yl)piperidin-1-yl]methyl}phenyl)imidazo[1,2-a]pyrimidine], for which the IC50 in experiment [1] is < 1 µM; in experiment [2] it was 1 to 10 µM.
The corresponding values for `c1ccc(-c2cn3ccnc3nc2-c2ccc(CN3CCC(c4cc(-c5ccccn5)n[nH]4)CC3)cc2)cc1` [Example 5, 6-phenyl-7-(4-{[4-(3-pyridin-2-yl-pyrazol-5-yl)piperidin-1-yl]methyl}phenyl)imidazo[1,2-a]pyrimidine] are < 1 µM and 1 to 10 µM.
Regarding `c1ccc(-c2cn3ccnc3nc2-c2ccc(CN3CCC(c4nc(-c5ccccn5)n[nH]4)CC3)cc2)cc1` [Example 1, 6-phenyl-7-(4-{[4-(3-pyridin-2-yl-1,2,4-triazol-5-yl)piperidin-1-yl]methyl}phenyl)imidazo[1,2-a]pyrimidine], the IC50 in experiment [1] and in experiment [2] was < 1 µM each time.
Take `CCc1cn2cc(-c3ccccc3)c(-c3ccc(CN4CCC(c5n[nH]c(-c6ccccn6)n5)CC4)cc3)nc2n1` [Example 17, 2-ethyl-6-phenyl-7-(4-{[4-(5-pyridin-2-yl-1,2,4-triazol-3-yl)piperidin-1-yl]methyl}phenyl)imidazo[1,2-a]pyrimidine]: the values for the IC50 in experiment [1] and in experiment [2] were < 1 µM and 1 to 10 µM, respectively.
